In patent US11780826B2 (Amgen Inc., priority 2017, dated 2023):

System: Bovine cardiac myofibrils
Test: In vitro model of dose-dependent myofibril ATPase modulation (AC1.4, pyruvate kinase/lactate dehydrogenase-coupled ATPase assay at pCa25)
Format: biochemical
Conditions: concentration at which ATPase activity was 1.4-fold higher than the bottom of the dose curve, mean of a minimum of two independent tests
In short: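 Detergent-skinned bovine cardiac myofibrils (typically 0.25-1.0 mg/ml) in Ca-buffered (EGTA/CaCl2) PK/LDH-coupled ATPase assay: 12 mM K-PIPES pH 6.80, 2 mM MgCl2, 1 mM ATP, 1 mM DTT, 0.5 mM NADH, 1.5 mM PEP. Hydrolysis followed at 340 nm; dose response fit to 4-parameter equation; AC1.4 is mean of ≥2 tests.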

AC1.4 [µM]	Compound
2.3655	CCS(=O)(=O)c1cccc(C(=O)N2[C@@H](C(=O)N[C@H](C)c3cc(F)c(Cl)cc3F)C[C@H]3C[C@H]32)c1 [Example 513, (1R,3R,5R)-N-((1R)-1-(4-chloro-2,5-difluorophenyl)ethyl)-2-(3-(ethylsulfonyl)benzoyl)-2-azabicyclo[3.1.0]hexane-3-carboxamide]
6.0545	Cc1ccc(C(F)(F)F)cc1CNC(=O)[C@H]1CCCN1C(=O)[C@H]1CCCN(S(=O)(=O)N2CC(C#N)C2)C1 [Example 714, 1-(((3S)-1-((3-cyano-1-azetidinyl)sulfonyl)-3-piperidinyl)carbonyl)-N-(2-methyl-5-(trifluoromethyl)benzyl)-D-prolinamide]
2.082	CN(C)S(=O)(=O)c1cccc(C(=O)N2C[C@H]3C[C@H]3[C@@H]2C(=O)NCc2ccc(C(F)(F)F)cc2)c1 [Example 478, (1R,2R,5S)-3-(3-(dimethylsulfamoyl)benzoyl)-N-(4-(trifluoromethyl)benzyl)-3-azabicyclo[3.1.0]hexane-2-carboxamide]
0.2589	C[C@@H](NC(=O)[C@H]1CCCN1C(=O)[C@H]1CCCN(S(=O)(=O)N2CC(S(C)(=O)=O)C2)C1)c1ccc(Cl)cc1 [Example 150, N-((1R)-1-(4-chlorophenyl)ethyl)-1-(((3S)-1-((3-(methylsulfonyl)-1-azetidinyl)sulfonyl)-3-piperidinyl)carbonyl)-D-prolinamide]
0.0687	CC(C)Nc1ccc(S(C)(=O)=O)cc1C(=O)N1[C@@H](C(=O)N[C@@H](c2ccc(C(F)(F)F)cc2F)C2CC2)C[C@H]2C[C@H]21 [Example 61, (1R,3R,5R)-N-((R)-cyclopropyl(2-fluoro-4-(trifluoromethyl)phenyl)methyl)-2-(5-(methylsulfonyl)-2-(2-propanylamino)benzoyl)-2-azabicyclo[3.1.0]hexane-3-carboxamide]
8.9635	O=C(N[C@@H](c1ccc(C(F)(F)F)cc1F)C1COC1)[C@H]1C[C@H]2C[C@H]2N1C(=O)c1cccc(C(F)(F)F)n1 [Example 789, (1R,3R,5R)-N-((R)-(2-fluoro-4-(trifluoromethyl)phenyl)(3-oxetanyl)methyl)-2-((6-(trifluoromethyl)-2-pyridinyl)carbonyl)-2-azabicyclo[3.1.0]hexane-3-carboxamide]
7.5875	CS(=O)(=O)c1cccc(C(=O)N2CC[C@@H](F)[C@@H]2C(=O)N[C@@H](c2ccc(C(F)(F)F)cc2)C2CC2)c1 [Example 756, (3R)-N-((R)-cyclopropyl(4-(trifluoromethyl)phenyl)methyl)-3-fluoro-1-(3-(methylsulfonyl)benzoyl)-D-prolinamide]
3.077	N#CC1CN(S(=O)(=O)N2CCC[C@H](C(=O)N3CCC[C@@H]3C(=O)N[C@H]3Cc4ccccc43)C2)C1 [Example 565, N-((7S)-bicyclo[4.2.0]octa-1,3,5-trien-7-yl)-1-(((3S)-1-((3-cyano-1-azetidinyl)sulfonyl)-3-piperidinyl)carbonyl)-D-prolinamide]
0.7027	CS(=O)(=O)N1CCC[C@H](C(=O)N2[C@@H](C(=O)N[C@@H](c3cc(F)c(Cl)cc3F)C3CC3)C[C@H]3C[C@H]32)C1 [Example 277, (1R,3R,5R)-N-((R)-(4-chloro-2,5-difluorophenyl)(cyclopropyl)methyl)-2-(((3S)-1-(methylsulfonyl)-3-piperidinyl)carbonyl)-2-azabicyclo[3.1.0]hexane-3-carboxamide]
6.8025	N#CC1CN(S(=O)(=O)N2CCC[C@H](C(=O)N3CCC[C@@H]3C(=O)N[C@@H](CO)c3ccc(Cl)cc3)C2)C1 [Example 733, N-((1R)-1-(4-chlorophenyl)-2-hydroxyethyl)-1-(((3S)-1-((3-cyano-1-azetidinyl)sulfonyl)-3-piperidinyl)carbonyl)-D-prolinamide]
5.425	CN1C[C@H](C(=O)N[C@@H](c2ccc(C(F)(F)F)cc2F)C2CC2)N(C(=O)c2cccc(S(C)(=O)=O)c2)C1=O [Example 693, (4R)-N-((R)-cyclopropyl(2-fluoro-4-(trifluoromethyl)phenyl)methyl)-1-methyl-3-(3-(methylsulfonyl)benzoyl)-2-oxo-4-imidazolidinecarboxamide]
2.071	O=C(O[C@@H]1CC(C(=O)N[C@@H](c2cc(F)c(Cl)cc2F)C2COC2)N(C(=O)c2ccnc(C(F)F)c2)C1)c1ccnc(C(F)F)c1 (stereo partly drawn) [Example 476, (3R,5R)-5-(((R)-(4-chloro-2,5-difluorophenyl)(3-oxetanyl)methyl)carbamoyl)-1-((2-(difluoromethyl)-4-pyridinyl)carbonyl)-3-pyrrolidinyl2-(difluoromethyl)-4-pyridinecarboxylate]
9.622	C[C@H](NC(=O)[C@H]1CCCN1C(=O)[C@H]1CCCN(S(=O)(=O)N2CC(C#N)C2)C1)c1ccc(Cl)cc1 [Example 803, N-((1S)-1-(4-chlorophenyl)ethyl)-1-(((3S)-1-((3-cyano-1-azetidinyl)sulfonyl)-3-piperidinyl)carbonyl)-D-prolinamide]
0.0553	N#CC1CN(S(=O)(=O)N2CCC[C@H](C(=O)N3CCC[C@@H]3C(=O)NCc3ccc(Cl)c(F)c3)C2)C1 [Example 51, N-(4-chloro-3-fluorobenzyl)-1-(((3S)-1-((3-cyano-1-azetidinyl)sulfonyl)-3-piperidinyl)carbonyl)-D-prolinamide]
4.4365	CS(=O)(=O)c1cncc(C(=O)N2CCC[C@@H]2C(=O)N[C@@H](c2ccc(C(F)(F)F)cc2F)C2CC2)c1 [Example 662, N-((R)-cyclopropyl(2-fluoro-4-(trifluoromethyl)phenyl)methyl)-1-((5-(methylsulfonyl)-3-pyridinyl)carbonyl)-D-prolinamide]
0.6326	COC1CN(S(=O)(=O)c2cccc(C(=O)N3CCC[C@@H]3C(=O)NCc3ccc(C(F)(F)F)cc3)c2)C1 [Example 258, 1-((3-((3-methoxy-1-azetidinyl)sulfonyl)phenyl)carbonyl)-N-(4-(trifluoromethyl)benzyl)-D-prolinamide]
4.5245	O=C(N[C@@H](c1ccc(C(F)(F)F)cc1F)C1CC1)[C@H]1CCCCN1C(=O)c1ccc2c(c1)S(=O)(=O)CC2 [Example 653, (2R)—N—((R)-cyclopropyl(2-fluoro-4-(trifluoromethyl)phenyl)methyl)-1-((1,1-dioxido-2,3-dihydro-1-benzothiophen-6-yl)carbonyl)-2-piperidinecarboxamide]
0.01635	CC[C@@H](NC(=O)[C@H]1CCCN1C(=O)c1cccc(S(=O)(=O)N2CC(C#N)C2)c1)c1ccc(C(F)(F)F)cc1 [Example 3, 1-(3-((3-cyano-1-azetidinyl)sulfonyl)benzoyl)-N-((1R)-1-(4-(trifluoromethyl)phenyl)propyl)-D-prolinamide]
0.573	COc1cccc2c1CCC2NC(=O)[C@H]1CCCN1C(=O)[C@H]1CCCN(S(=O)(=O)N2CC(C#N)C2)C1 (stereo partly drawn) [Example 242, (2R)-1-((S)-1-((3-cyanoazetidin-1-yl)sulfonyl)piperidine-3-carbonyl)-N-(4-methoxy-2,3-dihydro-1H-inden-1-yl)pyrrolidine-2-carboxamide]
